Measurements published in patent US9255100B2 (BAYER INTELLECTUAL PROPERTY GMBH, priority 2010, dated 2016).

target: T1, N-terminally GST-tagged human full length recombinant Mps-1 kinase (Homo sapiens, UniProt P33981); assay: Mps-1 kinase assay (TR-FRET); assay type: biochemical; details: Mps1 IC50 [nM], 10 μM ATP, 1 μM peptide substrate, 60 min at 22° C.
T1 construct: N-terminally GST-tagged human full length recombinant Mps-1 kinase; purchased Invitrogen, Karslruhe, Germany PV4071
T1 sequence (P33981 1-857): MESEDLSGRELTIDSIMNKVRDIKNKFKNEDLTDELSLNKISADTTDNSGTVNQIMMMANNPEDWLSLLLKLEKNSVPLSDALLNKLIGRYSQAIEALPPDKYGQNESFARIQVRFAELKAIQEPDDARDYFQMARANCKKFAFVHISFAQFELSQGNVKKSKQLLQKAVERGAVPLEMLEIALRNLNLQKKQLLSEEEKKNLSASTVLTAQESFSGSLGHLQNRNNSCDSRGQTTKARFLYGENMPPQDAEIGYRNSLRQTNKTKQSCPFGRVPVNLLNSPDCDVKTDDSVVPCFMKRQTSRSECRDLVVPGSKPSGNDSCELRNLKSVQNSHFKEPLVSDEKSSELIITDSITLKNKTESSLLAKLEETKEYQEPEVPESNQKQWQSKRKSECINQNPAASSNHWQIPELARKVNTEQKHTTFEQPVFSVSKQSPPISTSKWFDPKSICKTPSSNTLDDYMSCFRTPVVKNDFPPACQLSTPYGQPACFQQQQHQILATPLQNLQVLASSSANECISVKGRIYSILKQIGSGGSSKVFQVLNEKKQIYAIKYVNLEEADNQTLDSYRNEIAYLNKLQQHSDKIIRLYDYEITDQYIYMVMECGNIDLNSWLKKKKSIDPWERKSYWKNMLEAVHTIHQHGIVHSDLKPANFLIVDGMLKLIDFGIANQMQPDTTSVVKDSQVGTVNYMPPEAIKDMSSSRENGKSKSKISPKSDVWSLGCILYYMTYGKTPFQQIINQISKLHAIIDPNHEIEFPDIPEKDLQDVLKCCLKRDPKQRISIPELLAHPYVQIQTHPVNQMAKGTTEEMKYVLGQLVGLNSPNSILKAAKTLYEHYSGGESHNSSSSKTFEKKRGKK
How it was run: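 Read-out: TR-FRET from Europium-labelled anti-phospho(Ser/Thr) antibody to SA-XLent after 1 h detection incubation at 22° C. Inhibition of kinase activity measured.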

Row | Compound | IC50 [nM]
1 | CNC(=O)c1ccc(-c2cnc3c(NCCC(F)(F)F)cc(Oc4cccc(F)c4)nn23)cc1C [Example 551, 4-{6-(3-fluorophenoxy)-8-[(3,3,3-trifluoropropyl)amino]imidazo[1,2-b]pyridazin-3-yl}-N,2-dimethylbenzamide] | 0.2
2 | Cc1cc(-c2cnc3c(NCCC(F)(F)F)cc(Oc4cccc(F)c4F)nn23)ccc1C(=O)NC1CC1 [Example 258, N-cyclopropyl-4-{6-(2,3-difluorophenoxy)-8-[(3,3,3-trifluoropropyl)amino]imidazo[1,2-b]pyridazin-3-yl}-2-methylbenzamide] | 0.2
3 | Cc1cc(-c2cnc3c(NCCC(F)(F)F)cc(Sc4cc(F)cc(F)c4)nn23)ccc1C(=O)NC1CC1 [Example 251, N-cyclopropyl-4-{6-[(3,5-difluorophenyl)sulfanyl]-8-[(3,3,3-trifluoropropyl)amino]imidazo[1,2-b]pyridazin-3-yl}-2-methylbenzamide] | 0.2
4 | C/C=C/c1cc(NCCC(F)(F)F)c2ncc(-c3ccc(-c4cnc(C5CC5)[nH]4)cc3)n2n1 [Example 16, 3-[4-(2-Cyclopropyl-1H-imidazol-5-yl)phenyl]-6-[(1E)-prop-1-en-1-yl]-N-(3,3,3-trifluoropropyl)imidazo[1,2-b]pyridazin-8-amine] | 27.3
5 | Cc1cc(-c2cnc3c(NCCC(F)(F)F)cc(Oc4cccc(F)c4)nn23)ccc1C(=O)NCC(F)(F)C(F)(F)F [Example 555, 4-{6-(3-fluorophenoxy)-8-[(3,3,3-trifluoropropyl)amino]imidazo[1,2-b]pyridazin-3-yl}-2-methyl-N-(2,2,3,3,3-pentafluoropropyl)benzamide] | 9.4
6 | C=Cc1cc(NCCC(F)(F)F)c2ncc(-c3ccc(-c4cnc(C5CC5)[nH]4)cc3)n2n1 [Example 22, 3-[4-(2-Cyclopropyl-1H-imidazol-5-yl)phenyl]-6-ethenyl-N-(3,3,3-trifluoropropyl)imidazo[1,2-b]pyridazin-8-amine] | 35.7
7 | COc1cc(F)ccc1Nc1cc(NCCCC(F)(F)F)c2ncc(-c3ccc(C(=O)NC4CC4)c(C)c3)n2n1 [Example 457, N-cyclopropyl-4-{6-[(4-fluoro-2-methoxyphenyl)amino]-8-[(4,4,4-trifluorobutyl)amino]imidazo[1,2-b]pyridazin-3-yl}-2-methylbenzamide] | 5.4
8 | Cc1cc(-c2cnc3c(NCCC(F)(F)F)cc(OCC(F)(F)C(F)(F)CO)nn23)ccc1C(=O)NC1CC1 [Example 278A, N-cyclopropyl-2-methyl-4-{6-(2,2,3,3-tetrafluoro-4-hydroxybutoxy)-8-[(3,3,3-trifluoropropyl)amino]imidazo[1,2-b]pyridazin-3-yl}benzamide] | 0.4
9 | Cc1cc(-c2cnc3c(NCC(C)(C)O)cc(Oc4cc(F)cc(F)c4)nn23)ccc1C(=O)NC1CC1 [Example 262, N-cyclopropyl-4-{6-(3,5-difluorophenoxy)-8-[(2-hydroxy-2-methylpropyl)amino]imidazo[1,2-b]pyridazin-3-yl}-2-methylbenzamide] | 0.2

Other lines, results leading:

Row | IC50 [nM] | Compound
10 | 2.6 | Cc1cc(-c2cnc3c(NCC4CN(C)CCO4)cc(-c4ccc(F)cc4)nn23)ccc1C(=O)NC1CC1 (racemic) [Example 229, (RS)—N-cyclopropyl-4-[6-(4-fluorophenyl)-8-{[(4-methylmorpholin-2-yl)methyl]amino}imidazo[1,2-b]pyridazin-3-yl]-2-methylbenzamide]
11 | 0.1 | Cc1cc(-c2cnc3c(NCCC(F)(F)F)cc(Nc4ccccc4F)nn23)ccc1C(=O)NC1CC1 [Example 369, N-cyclopropyl-4-{6-[(2-fluorophenyl)amino]-8-[(3,3,3-trifluoropropyl)amino]imidazo[1,2-b]pyridazin-3-yl}-2-methylbenzamide]
12 | 0.1 | Cc1cc(-c2cnc3c(NCC(F)F)cc(Oc4cccc(F)c4)nn23)ccc1C(=O)NC1CC1 [Example 512, N-cyclopropyl-4-{8-[(2,2-difluoro-ethyl)amino]-6-(3-fluoro-phenoxy)imidazo[1,2-b]pyridazin-3-yl}-2-methylbenzamide]
13 | 0.6 | Cc1cc(-c2cnc3c(NCCC(F)(F)F)cc(Oc4cccc(OC(C)C)c4)nn23)ccc1C(=O)NC1CC1 [Example 381, N-cyclopropyl-2-methyl-4-{6-[3-(propan-2-yloxy)phenoxy]-8-[(3,3,3-trifluoropropyl)amino]imidazo[1,2-b]pyridazin-3-yl}benzamide]
14 | 0.2 | Cc1cc(-c2cnc3c(NCC(C)(C)O)cc(Oc4cccc(Cl)c4)nn23)ccc1C(=O)NC1CC1 [Example 85, 4-{6-(3-Chlorophenoxy)-8-[(2-hydroxy-2-methylpropyl)amino]imidazo[1,2-b]pyridazin-3-yl}-N-cyclopropyl-2-methylbenzamide]
15 | 35.5 | CC(=O)Nc1ccccc1-c1cc(NCC(C)C)c2ncc(-c3ccc(C(=O)NC4CC4)cc3)n2n1 [Example 107, 4-{6-[2-(Acetylamino)phenyl]-8-[(2-methylpropyl)amino]imidazo[1,2-b]pyridazin-3-yl}-N-cyclopropylbenzamide]
16 | 0.2 | Cc1cc(-c2cnc3c(NCC4CC(F)(F)C4)cc(Oc4cccc(F)c4)nn23)ccc1C(=O)NC1CC1 [Example 330, N-cyclopropyl-4-[8-{[(3,3-difluorocyclobutyl)methyl]amino}-6-(3-fluoro-phenoxy)imidazo[1,2-b]pyridazin-3-yl]-2-methyl-benzamide]
17 | 1.6 | Cc1cc(-c2cnc3c(NCC4CCOCC4)cc(-c4ccccc4CO)nn23)ccc1C(=O)NC1CC1 [Example 346, N-cyclopropyl-4-{6-[2-(hydroxy-methyl)phenyl]-8-[(tetrahydro-2H-pyran-4-ylmethyl)amino]imidazo[1,2-b]pyridazin-3-yl}-2-methyl-benzamide]
18 | 4.4 | Cc1cc(-c2cnc3c(NCC(C)(C)O)cc(Nc4ccncc4)nn23)ccc1C(=O)NC1CC1 [Example 365, N-cyclopropyl-4-{8-[(2-hydroxy-2-methylpropyl)amino]-6-(pyridin-4-ylamino)imidazo[1,2-b]pyridazin-3-yl}-2-methylbenzamide]
19 | 5.6 | CSc1cc(NCc2ccnn2C)c2ncc(-c3ccc(C(=O)NC4CC4)c(C)c3)n2n1 [Example 237, N-cyclopropyl-2-methyl-4-[8-{[(1-methyl-1H-pyrazol-5-yl)methyl]amino}-6-(methylsulfanyl)imidazo[1,2-b]pyridazin-3-yl]benzamide]
20 | 0.1 | COc1ccc(Oc2cc(NCC(C)(C)O)c3ncc(-c4ccc(C(=O)NC5CC5)c(C)c4)n3n2)cc1 [Example 86, N-cyclopropyl-4-{8-[(2-hydroxy-2-methylpropyl)amino]-6-(4-methoxyphenoxy)imidazo[1,2-b]pyridazin-3-yl}-2-methylbenzamide]
21 | 0.3 | Cc1cc(-c2cnc3c(NCCC(F)(F)F)cc(Oc4ccccc4N)nn23)ccc1C(=O)NC1CC1 [Example 395, 4-{6-(2-aminophenoxy)-8-[(3,3,3-trifluoropropyl)amino]imidazo[1,2-b]pyridazin-3-yl}-N-cyclopropyl-2-methylbenzamide]
22 | 1.2 | COc1c(Oc2cc(NCCC(F)(F)F)c3ncc(-c4ccc(C(=O)NC5CC5)c(C)c4)n3n2)cccc1C(C)C [Example 418, N-cyclopropyl-4-{6-[2-methoxy-3-(propan-2-yl)phenoxy]-8-[(3,3,3-trifluoropropyl)amino]imidazo[1,2-b]pyridazin-3-yl}-2-methylbenzamide]
